Results published in US20040023945A1, “CYCLIC AMP-SPECIFIC PHOSPHODIESTERASE INHIBITORS” (ICOS Corporation, priority 1999, published 2004).
Read-outs that look alike come from different tables or passages of the source.

Experiments:
[1] = target: T1, PDE1A (Homo sapiens, UniProt P54750); test: Inhibition of PDE1A; format: biochemical
T1 construct: contained the complete open reading frame of PDE1A3; made in house; host or cells: baculovirus-infected Sf9 cells

[2] = target: T2, PDE2 (Homo sapiens, UniProt O00408); test: Inhibition of PDE2; format: biochemical
T2 construct: made in house; host or cells: Saccharomyces cerevisiae strain YI34

[3] = system: human peripheral blood lymphocytes; test: Lipopolysaccharide-stimulated TNFα release from human peripheral blood lymphocytes; format: cell-based; conditions: Homo sapiens, Lymphocyte, LPS-stimulated TNFα release from human PBL; read-out: PBL/TNFα EC50
In short: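 Lymphocytes were isolated by Histopaque from heparinized human blood and plated at 3×10^6 cells/mL. Test compound was added 15 min before LPS ([…]), and cells were incubated 20 h at 37 °C. TNFα in the supernatant was measured by ELISA, and EC50 was taken as 50% inhibition of total TNFα.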

[4] = target: T3, PDE1C (Homo sapiens, UniProt Q14123); test: Inhibition of PDE1C; format: biochemical
T3 construct: contained the complete open reading frame of PDE1C3; made in house; host or cells: baculovirus-infected Sf9 cells

[5] = system: recombinant human PDE4; test: Inhibition of recombinant human PDE4 (cAMP hydrolysis); conditions: read-out: PDE4 IC50
Method: The compounds of structural formula (II) were tested for an ability to inhibit PDE4. […] The IC, value for compounds of structural formula (II) were determined using recombinant human PDE4.
Phosphodiesterase activity of the preparations was determined as follows. […] In this assay, PDE activity converts [32P]cAMP or [32P]cGMP to the corresponding [32P]5′-AMP or [32P]5′-GMP in proportion to the amount of PDE activity present. The [32P]5′-AMP or [32P]5′-GMP then was quantitatively converted to free [32P]phosphate and unlabeled adenosine or guanosine by the action of snake venom 5′-nucleotidase. […] The assay was performed at 30° C. in a 100 μL reaction mixture containing (final concentrations) 40 mM Tris HCl (pH 8.0), 1 μM ZnSO4, 5 mM MgCl2, and 0.1 mg/mL bovine serum albumin (BSA). […] PDE enzyme was present in quantities that yield<30% total hydrolysis of substrate (linear assay conditions). The assay was initiated by addition of substrate (1 mM [32P]cAMP or cGMP), and the mixture was incubated for 12 minutes. Seventy-five (75) μg of Crotalus atrox venom then was added, and the incubation was continued for 3 minutes (15 minutes total). The reaction was stopped by addition of 200 μL of activated charcoal (25 mg/mL suspension in 0.1 M NaH2PO4, pH 4). After centrifugation (750×g for 3 minutes) to sediment the charcoal, a sample of the supernatant was taken for radioactivity determination in a scintillation counter and the PDE activity was calculated.

[6] = system: mouse; test: Subjective assessment of mouse immobility (CNS side effects); format: in vivo; conditions: subjective assessment of mouse immobility, i.p. 1, 10 and 100 mg/kg, 60 minutes
[7] = target: T4, PDE3A (Homo sapiens, UniProt Q14432); test: Inhibition of PDE3A; format: biochemical
T4 construct: contained the complete open reading frame of PDE3A; made in house; host or cells: baculovirus-infected Sf9 cells

[8] = target: T5, PDE7 (Homo sapiens, UniProt Q13946); test: Inhibition of PDE7; format: biochemical
T5 construct: made in house; host or cells: Saccharomyces cerevisiae BJ2-54

[9] = target: T6, PDE5 (Homo sapiens, UniProt O76074); test: Inhibition of PDE5; format: biochemical
T6 construct: made in house; host or cells: Saccharomyces cerevisiae BJ2-54

[10] = target: T7, human recombinant PDE4B (Homo sapiens, UniProt Q07343); test: Inhibition of human recombinant PDE4B; format: biochemical; conditions: read-out: IC50 vs. human recombinant PDE4B
T7 construct: made in house; host or cells: Saccharomyces cerevisiae strain YI23 harboring HDUN2.32

[11] = target: T8, PDE1B (Homo sapiens, UniProt Q01064); test: Inhibition of PDE1B; format: biochemical
T8 construct: made in house; host or cells: Saccharomyces cerevisiae BJ2-54

[12] = system: ferret; test: Emetic modeling in the ferret following oral and intravenous dosing; format: in vivo, Mustela putorius furo
Method: This study was conducted to investigate the emetogenic properties of PDE4 inhibitors in vivo. The ferret previously has been established as a valuable tool for assessing emesis following exposure to test compounds. […] Therefore, lack of and/or decrease in emetic potential of test compounds in ferrets predicts a favorable nonemetic effect in humans. Emesis is a complex physiological response to noxious agents that can be intiated peripherally or centrally.
The test animals were adult, castrated, and descented male ferrets (species=Mustela putorius furo, Strain=Sable) ranging in weight from about 1 to 1.5 kg. The tests were performed in quadruplicate on animals that were naive to PDE4 inhibitors. The PDE4 inhibitors were formulated in 10% Polyoxyl-35 castor oil (CREMOPHOR® EL, available from BASF Corporation, Parsippany, N.J.) in phosphate buffered saline (PBS), and were administered via i.v. injections into an indwelling catheter surgically positioned in the right external jugular vein at a rate of 0.66 mL per kg body weight. PDE4 inhibitors for oral consumption were formulated in 30% CREMOPHOR® EL in PBS, and administered by intubating animals with a 16-gauge feeding needle into the stomach. The animals received the PDE4 inhibitors in a volume of 1.33 mL per kg body weight.
All animals were fasted for 8 to 12 hours prior to administration of PDE4 inhibitors. Following administration of a PDE4 inhibitor, emetic and behavioral responses were quantified for three hours post dosing. The total number of emetic responses and vomiting episodes were quantified during the observation interval. In addition, latency time to first emetic episode, duration of emesis episodes, and gross behavioral changes including ataxia, profuse and viscous salivation, mouth clawing, hyperventilation, backward walking, flattened body posture, hyperactivity, lip licking, and general appearance were recorded.
For comparative purposes, the emetogenic effect of Samples 66 and 69 were tested intravenously at 1.0, 2.5, 5.0, and 10 mg/kg and orally at 2.5, 10, 17, and 25 mg/kg.

[13] = system: serum TNFα levels in LPS-injected mice; test: Inhibition of serum TNFα levels in LPS-injected mice (Mouse/TNFα ED50); format: in vivo; conditions: Mus musculus, stereoisomer comparison table; read-out: Mouse/TNFα ED50
Method: In order to assess the ability of a compound to reduce serum TNFα levels in mammals, the following protocol was employed. […] Accordingly, in vivo efficacy of a PDE4 reducing compound was shown by dosing with compound and measuring reduction of serum TNFα levels in LPS-injected mice. Female C3H mice, 20-25 gm body weight, were fasted overnight and dosed intraperitoneally with test compound in appropriate vehicle 60 minutes before LPS injection. Five μg of LPS was then injected intraperitoneally into the mice. Ninety minutes after LPS injection, mice were bled from the heart. Blood was allowed to clot overnight at 4° C. Samples were centrifuged for 10 minutes in a microcentrifuge and the serum removed and stored at −20° C. until analysis. Serum levels of TNFα were subsequently measured using a commercially available ELISA kit (Genzyme) following the protocol enclosed in the kit. The percent of inhibition of serum TNFα levels caused by the compound was determined relative to serum TNFα levels in control mice receiving vehicle alone. […]

[14] = system: Balb/c mice; test: Mouse locomotor activity assay (decrease in spontaneous mobility); conditions: in vivo, ip
Method: The purpose of this study was to determine the efficacy of PDE4 inhibitors in vivo in an LPS mouse model together with a determination with respect to central nervous system (CNS) side-effects manifested by a decrease in spontaneous mobility.
The test animals were female Balb/c mice, having an average weight of about 20 g. The PDE4 inhibitors, formulated in 30% Cremophor® EL, were administered via intraperitoneal (i.p.) injections at doses of 0.1, 1.0, 10.0, and 100 mg/kg. Individual dose volumes (about 150 μL) were adjusted based on the body weights measured. One hour later, 5 mg/kg LPS in a final volume of 200 μL was injected via the tail vein to each animal. Ninety minutes following the LPS treatment, the animals were bled and serum samples were collected before being stored at −70° C. until assayed.
Movement of the X-Y plane, or rearing up on the hind legs, was quantified by counting the number of “light-beam” crosses per unit of time. A decrease in the number of activity events is directly proportional to the mobility or immobilization of the animal. The quantitative scoring correlated well with the subjective measurements described above.

T2 sequence (O00408 whole entry): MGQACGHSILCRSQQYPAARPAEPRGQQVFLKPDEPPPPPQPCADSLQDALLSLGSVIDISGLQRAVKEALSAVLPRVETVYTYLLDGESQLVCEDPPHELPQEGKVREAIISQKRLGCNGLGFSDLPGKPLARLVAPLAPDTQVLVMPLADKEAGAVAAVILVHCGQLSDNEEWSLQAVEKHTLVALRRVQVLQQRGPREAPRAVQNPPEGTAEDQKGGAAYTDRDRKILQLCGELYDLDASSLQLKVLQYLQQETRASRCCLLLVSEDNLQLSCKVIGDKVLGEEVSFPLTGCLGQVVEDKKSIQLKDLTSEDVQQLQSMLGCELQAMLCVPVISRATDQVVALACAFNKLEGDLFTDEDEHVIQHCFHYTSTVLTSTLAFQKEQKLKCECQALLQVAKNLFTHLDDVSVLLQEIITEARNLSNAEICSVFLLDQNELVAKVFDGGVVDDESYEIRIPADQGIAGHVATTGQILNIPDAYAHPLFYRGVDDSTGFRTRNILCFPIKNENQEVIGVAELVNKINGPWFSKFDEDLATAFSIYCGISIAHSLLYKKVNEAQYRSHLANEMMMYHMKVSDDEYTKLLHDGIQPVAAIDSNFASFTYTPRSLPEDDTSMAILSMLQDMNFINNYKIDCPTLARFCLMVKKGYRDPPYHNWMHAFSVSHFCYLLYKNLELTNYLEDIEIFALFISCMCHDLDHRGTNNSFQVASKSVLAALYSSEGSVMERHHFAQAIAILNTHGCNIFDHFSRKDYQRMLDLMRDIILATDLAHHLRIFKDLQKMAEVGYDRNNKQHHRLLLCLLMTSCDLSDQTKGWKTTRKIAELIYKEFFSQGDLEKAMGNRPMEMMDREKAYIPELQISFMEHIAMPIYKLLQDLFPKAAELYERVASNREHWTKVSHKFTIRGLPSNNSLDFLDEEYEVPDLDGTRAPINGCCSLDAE
T4 sequence (Q14432 whole entry): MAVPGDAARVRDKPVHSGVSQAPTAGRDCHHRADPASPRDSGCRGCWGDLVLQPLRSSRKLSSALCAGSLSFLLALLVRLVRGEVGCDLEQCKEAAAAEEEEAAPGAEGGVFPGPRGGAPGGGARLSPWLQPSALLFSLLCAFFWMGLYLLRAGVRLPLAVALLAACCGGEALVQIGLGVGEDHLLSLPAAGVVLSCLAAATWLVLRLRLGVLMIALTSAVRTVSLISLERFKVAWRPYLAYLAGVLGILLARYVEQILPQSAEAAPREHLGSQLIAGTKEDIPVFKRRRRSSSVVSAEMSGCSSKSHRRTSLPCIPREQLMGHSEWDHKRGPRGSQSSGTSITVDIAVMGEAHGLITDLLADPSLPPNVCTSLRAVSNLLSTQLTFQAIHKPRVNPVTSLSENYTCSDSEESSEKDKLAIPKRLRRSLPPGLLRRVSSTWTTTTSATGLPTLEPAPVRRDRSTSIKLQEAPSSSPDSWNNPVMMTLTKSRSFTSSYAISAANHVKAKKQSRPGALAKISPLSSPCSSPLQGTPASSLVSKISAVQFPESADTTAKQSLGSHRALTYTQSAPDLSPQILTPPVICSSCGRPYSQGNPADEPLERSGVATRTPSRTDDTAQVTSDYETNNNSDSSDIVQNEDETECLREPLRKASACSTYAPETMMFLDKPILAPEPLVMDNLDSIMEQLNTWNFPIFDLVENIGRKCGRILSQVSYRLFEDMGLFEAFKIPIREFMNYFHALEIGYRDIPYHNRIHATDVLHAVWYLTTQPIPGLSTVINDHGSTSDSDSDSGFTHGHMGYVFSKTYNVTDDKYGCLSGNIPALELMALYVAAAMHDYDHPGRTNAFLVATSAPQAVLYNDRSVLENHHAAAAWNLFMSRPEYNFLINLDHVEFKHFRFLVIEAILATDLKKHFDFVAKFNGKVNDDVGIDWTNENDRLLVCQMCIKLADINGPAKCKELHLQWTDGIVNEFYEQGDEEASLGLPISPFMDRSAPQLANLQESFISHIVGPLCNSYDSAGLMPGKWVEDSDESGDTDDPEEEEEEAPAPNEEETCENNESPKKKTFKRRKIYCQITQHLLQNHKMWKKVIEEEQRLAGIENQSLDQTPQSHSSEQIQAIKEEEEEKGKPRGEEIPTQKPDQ
T5 sequence (Q13946 whole entry): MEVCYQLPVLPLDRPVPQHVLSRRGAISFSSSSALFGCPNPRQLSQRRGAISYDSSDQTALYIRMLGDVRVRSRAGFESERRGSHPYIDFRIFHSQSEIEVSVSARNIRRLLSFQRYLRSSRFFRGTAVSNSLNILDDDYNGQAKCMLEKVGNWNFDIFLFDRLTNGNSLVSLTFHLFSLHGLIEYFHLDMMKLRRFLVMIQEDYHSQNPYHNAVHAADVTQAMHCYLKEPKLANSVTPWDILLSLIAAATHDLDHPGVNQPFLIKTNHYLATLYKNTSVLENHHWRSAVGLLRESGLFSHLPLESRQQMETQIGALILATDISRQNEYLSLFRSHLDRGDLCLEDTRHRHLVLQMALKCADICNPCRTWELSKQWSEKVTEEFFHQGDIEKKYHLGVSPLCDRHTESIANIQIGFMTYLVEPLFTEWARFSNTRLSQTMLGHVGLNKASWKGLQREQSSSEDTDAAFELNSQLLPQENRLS
T7 sequence (Q07343 whole entry): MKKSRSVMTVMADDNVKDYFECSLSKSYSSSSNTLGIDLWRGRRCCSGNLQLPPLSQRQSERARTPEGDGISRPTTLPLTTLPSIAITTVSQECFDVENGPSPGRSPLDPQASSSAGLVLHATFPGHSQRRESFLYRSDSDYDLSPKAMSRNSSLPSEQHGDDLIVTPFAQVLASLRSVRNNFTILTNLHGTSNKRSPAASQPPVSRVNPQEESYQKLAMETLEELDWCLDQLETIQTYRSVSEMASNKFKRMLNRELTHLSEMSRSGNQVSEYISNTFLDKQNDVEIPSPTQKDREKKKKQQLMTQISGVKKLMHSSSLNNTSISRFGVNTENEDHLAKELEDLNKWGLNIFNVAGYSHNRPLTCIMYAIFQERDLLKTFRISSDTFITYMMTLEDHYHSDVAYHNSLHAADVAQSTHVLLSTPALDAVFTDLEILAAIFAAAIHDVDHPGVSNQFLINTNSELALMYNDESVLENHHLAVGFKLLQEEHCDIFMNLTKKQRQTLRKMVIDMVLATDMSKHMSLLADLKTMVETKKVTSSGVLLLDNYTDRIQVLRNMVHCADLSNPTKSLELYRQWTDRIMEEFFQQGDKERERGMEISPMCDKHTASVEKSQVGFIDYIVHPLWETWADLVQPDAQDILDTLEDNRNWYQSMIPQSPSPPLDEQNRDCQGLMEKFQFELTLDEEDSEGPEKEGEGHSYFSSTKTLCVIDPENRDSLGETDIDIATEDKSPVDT

COC(=O)N1C[C@@H](c2ccc(OC)c(OC3CCCC3)c2)[C@](C)([C@@H](C)O)C1 [(C)]
IC50 [1]: 80 µM
IC50 [2]: 450 µM
EC50 [3]: 0.0716 µM
IC50 [4]: 12 µM
IC50 ([5]; human recombinant PDE4): 0.014 µM
IC50 ([5]; stereoisomer comparison table): 0.014 µM
CNS Side Effects [6]: No effect
IC50 [7]: 40 µM
IC50 [8]: 36 µM
IC50 [9]: 270 µM
IC50 [10]: 0.015 µM
IC50 [11]: 100 µM
Number of Emetic Events: Retches ([12]; intravenous 1.0 mg/kg): 0
Number of Emetic Events: Total ([12]; intravenous 1.0 mg/kg): 0
Number of Emetic Events: Vomits ([12]; intravenous 1.0 mg/kg): 0
Responders ([12]; intravenous 1.0 mg/kg): 0/4
Number of Emetic Events: Retches ([12]; intravenous 2.5 mg/kg): 0
Number of Emetic Events: Total ([12]; intravenous 2.5 mg/kg): 0
Number of Emetic Events: Vomits ([12]; intravenous 2.5 mg/kg): 0
Responders ([12]; intravenous 2.5 mg/kg): 0/4
Number of Emetic Events: Retches ([12]; intravenous 5.0 mg/kg): 10
Number of Emetic Events: Total ([12]; intravenous 5.0 mg/kg): 10
Number of Emetic Events: Vomits ([12]; intravenous 5.0 mg/kg): 0
Responders ([12]; intravenous 5.0 mg/kg): 2/4
Number of Emetic Events: Retches ([12]; intravenous 10.0 mg/kg): 27
Number of Emetic Events: Total ([12]; intravenous 10.0 mg/kg): 31
Number of Emetic Events: Vomits ([12]; intravenous 10.0 mg/kg): 4
Responders ([12]; intravenous 10.0 mg/kg): 4/4
distress after intravenous dosing ([12]; intravenous 10 mg/kg body weight): none displayed the distress
Number of Emetic Events: Retches ([12]; oral 2.5 mg/kg): 0
Number of Emetic Events: Total ([12]; oral 2.5 mg/kg): 0
Number of Emetic Events: Vomits ([12]; oral 2.5 mg/kg): 0
Responders ([12]; oral 2.5 mg/kg): 0/4
Number of Emetic Events: Retches ([12]; oral 10.0 mg/kg): 14
Number of Emetic Events: Total ([12]; oral 10.0 mg/kg): 22
Number of Emetic Events: Vomits ([12]; oral 10.0 mg/kg): 8
Responders ([12]; oral 10.0 mg/kg): 2/4
Number of Emetic Events: Retches ([12]; oral 17.0 mg/kg): 17
Number of Emetic Events: Total ([12]; oral 17.0 mg/kg): 18
Number of Emetic Events: Vomits ([12]; oral 17.0 mg/kg): 1
Responders ([12]; oral 17.0 mg/kg): 2/3
Number of Emetic Events: Retches ([12]; oral 25.0 mg/kg): 61
Number of Emetic Events: Total ([12]; oral 25.0 mg/kg): 73
Number of Emetic Events: Vomits ([12]; oral 25.0 mg/kg): 12
Responders ([12]; oral 25.0 mg/kg): 4/4
ED50 [13]: 5 mg/kg

COc1ccc([C@@H]2CN(C(=O)CNC(=O)OCc3ccccc3)C[C@@]2(C)[C@@H](C)O)cc1OC1Cc2ccccc2C1 [Example 29, N-(2-[3-((1R)-1-Hydroxyethyl)(3S,4S)-4-(3-indan-2-yloxy-4-methoxyphenyl)-3-methylpyrrolidinyl]-2-oxoethyl}(phenylmethoxy)carboxamide]
ED50, effective dose that decreases spontaneous mobility 50% of control [14]: 9.8 mg/kg
